Assay results from paper PMC5955599, “The HTLV-1 gp21 fusion peptide inhibits antigen specific T-cell activation in-vitro and in mice” (PLoS Pathogens, 2018).

Experiments:
[1] = system: MOG35-55–antigen specific T-cells; assay: In-vitro T-cell proliferative response (H3-thymidine incorporation); assay type: cell-based, mouse (C57Bl/6J); details: peptide at 10μM, irradiated MOG35-55 presenting APCs, mean inhibition of proliferation, n = 12
[2] = system: human peripheral T lymphocytes; assay: Cytokine secretion from primary human peripheral T-cells (ELISA); assay type: cell-based; details: peptide at 10μM, CD3 and CD28 antibodies, media 48 hours following activation, n = 12
Procedure: Fig 4 Primary human T-cell activation is inhibited upon HTLV FP treatment. Human peripheral T lymphocytes were isolated from whole blood and activated using CD3 and CD28 antibodies, in the presence of HTLV FP or HTLV Scr at 10μM. Media was collected 48 hours following activation and secretion of IL2, IFN-γ and IL10 was measured by ELISA assay. […] One-way ANOVA was used for statistical analysis. *P<0.05; ***P<0.001; ns, not significant.
Human peripheral T lymphocytes were isolated from whole blood of healthy adult donors by dextran sedimentation and Ficoll (Sigma) gradient separation followed by depletion of B cells using nylon wool column (Unisorb), to which B cells were adsorbed. Cells were incubated in a complete RPMI growth medium (500 ml RPMI Ca/Mg + heat inactivated FCS (10% final) + 5 ml 200 mM L-Glu (2 mM final) +5 ml […] Na pyruvate (1 mM final) + 5 ml Pen Strep antibiotics) for more than 2 h, and then non-adherent cells were harvested and transferred to a new plate, resulting in ~90% CD3+ T lymphocytes. Cells were then used for in vitro assay, in which […] were plated per well in a 96-well plate and activated using CD3 and CD28 antibodies.
Human peripheral T lymphocytes were isolated from whole blood of healthy donors and were incubated in a complete RPMI growth medium (500 ml RPMI Ca/Mg + heat inactivated FCS (10% final) + 5 ml 200 mM L-Glu (2 mM final) +5 ml […] Na pyruvate (1 mM final) + 5 ml Pen Strep antibiotics). Cells were activated using CD3 and CD28 antibodies, in the presence of relevant peptides at 10μM. Media was collected 48 hours following activation and secretion of IL2 and IFN-γ was determined according to standard protocols from R&D systems.

[3] = system: MOG35-55–antigen specific T-cells; assay: Cytokine secretion from activated antigen-specific T-cells (ELISA); assay type: cell-based, mouse (C57Bl/6J); details: peptide at 10μM, APC-activated T-cells, media 24 hours following activation, n = 12
Procedure: Fig 2 Modulation of Th1/Th2 gene expression and cytokine secretion from activated T-cells by the HTLV FP. MOG35-55–antigen specific T-cells were activated by irradiated MOG35-55 presenting APCs, in the presence of the HTLV FP at 10μM. (A) Total RNA was isolated 24 hours following activation and mRNA expression levels were determined by qRT-PCR. The values of each gene were normalized to Rpl13a as a housekeeping control. The HTLV FP reduces mRNA expression of Th1 specific genes (IFNG, LTA, and STAT4) and elevates mRNA expression of Th2 specific genes (IL4 and IL10). The data is presented as arbitrary units. n≥3. (B) Media was collected 24 hours following activation and secretion of cytokines was measured by ELISA assay. IFN-γ secretion is inhibited, IL4 secretion is elevated and TNFα is not affected by the HTLV FP. n = 12. One-way ANOVA was used for statistical analysis. *P<0.05; **P<0.01;***P<0.001.
Antigen-specific T-cells were plated onto round 96-well plates in medium containing RPMI-1640 supplemented with 2.5% fetal calf serum (FCS), 100 U/ml penicillin, 100 μg/ml streptomycin, 50μM β-mercaptoethanol, and 2mM L-glutamine. […] In addition, the relevant peptide was added. Each treatment was made with quadruplicate. Analysis of IFN-γ, IL-4 and TNFα secretion was performed by ELISA 24 hours after cell activation according to standard protocols from R&D systems.

C57BL/6 female mice = assay: MOG35-55-induced experimental autoimmune encephalomyelitis (EAE); assay type: in vivo, mouse
Procedure: (A-B) MOG35-55–antigen specific T-cells were activated by irradiated MOG35-55 presenting APCs, in the presence of HTLV FP or HTLV Scr at 10μM. (A) The proliferative responses were assessed by H^3-thymidine incorporation assay, and normalized to the proliferation of non-activated T-cells. The data is presented as mean inhibition of proliferation. n = 12. (B) IFN-γ was measured by ELISA assay. n = 12. (C-D) EAE was induced in C57BL/6 female mice that were treated with a single dose of HTLV FP, HTLV Scr or vehicle. […] (C) Direct clinical measurement of EAE phenotype in a 5-point scale with increased disease symptoms correlating with higher score value. The data is presented as mean EAE clinical score. (D) Mice were weighed the day before EAE induction, and the change (as a percentage) in weight was recorded. The data is presented as mean change from the initial weight. One-way ANOVA was used for statistical analysis. ^a HTLV FP ≠ Vehicle; ^b HTLV FP ≠ Vehicle & HTLV Scr; ^c HTLV FP ≠ HTLV Scr. ^a,b,cP<0.05. (E) Spleenocytes were harvested at 26 DPI and stimulated using MOG35-55. The proliferative responses were assessed by H^3-thymidine incorporation assay and normalized to the proliferation of non-activated T-cells. The data is presented as counts per minute (CPM). n = 7. (F-G) Spleenocytes were harvested at 26 DPI and stimulated using MOG35-55. Media was collected 48 hours following activation and secretion of IFN-γ and IL4 was measured by ELISA assay. […] One-way ANOVA was used for statistical analysis. *P<0.05;**P<0.01;***P<0.001; ns, not significant.
EAE was induced in 9-week-old wild type and homozygous C57BL/6 female mice (Harlan Laboratories Israel/ Weizmann Institute animal facilities) by injecting a peptide comprising residues 35–55 of mouse myelin oligodendrocyte glycoprotein (MOG35–55; PolyPeptide Laboratories, Strasbourg, France). Mice were injected subcutaneously above the lumbar spinal cord with 100 μl of emulsion containing 200 μg/mouse of the encephalitogenic peptide in complete Freund’s adjuvant (BD-Difco) enriched with 250 μg/mouse of heat-inactivated Mycobacterium tuberculosis (BD-Difco) at 0 days post-induction (DPI). The HTLV FP was dissolved in PBS and added to the emulsion (1mg/kg). Pertussis toxin (Enzo Life Sciences) at a dose of 300 ng per mouse was injected intraperitoneally immediately after the encephalitogenic injection, as well as at […]. EAE disease was scored using a five-point grading with 0 for no clinical disease; 1, tail weakness; 2, paraparesis (incomplete paralysis of one or two hindlimbs); 3, paraplegia (complete paralysis of one or two hindlimbs); 4, paraplegia with forelimb weakness or paralysis; 5, moribund or dead animals. The mice were examined daily.
EAE was induced in C57BL/6 female mice that were either treated with a single dose of HTLV FP or vehicle. […] (A) Direct clinical measurement of EAE phenotype in a 5-point scale with increased disease symptoms correlating with higher score value. The data is presented as mean EAE clinical score. (B) Mice were weighed the day before EAE induction, and the change (as a percentage) in weight was recorded. The data is presented as mean change from the initial weight. Student’s t-test was used for statistical analysis. *P<0.05; **P<0.01;***P<0.001. (TIF) Click here for additional data file.

## ASKAASASPVSAGVTGIGVLMLGVVAMGWASLG [HTLV Scr, scrambled HTLV FP peptide, same amino acid composition and length as the HTLV FP]
[1]
  inhibition of T-cell proliferation, activation by MOG35-55 presenting APCs: higher potency than the HTLV Scr
[2]
  IFN-γ secretion, human T-cells: had no effect on T-cell activation
  IL2 secretion, human T-cells: had no effect on T-cell activation
  IL10 secretion, human T-cells: had no effect on T-cell activation
[3]
  IFN-γ secretion: higher potency than the HTLV Scr
C57BL/6 female mice; additional experiment, S5 and S6 Movies
  clinical symptoms of a cage of treated mice at DPI 17: exhibiting clinical EAE symptoms
C57BL/6 female mice; single dose 1mg/kg, HTLV FP, HTLV Scr or vehicle, period 11 to 16 DPI, 5-point scale
  EAE clinical signs, additional experiment: ascent between 11 to 16 DPI
